Results reported in US20120052125A1, “Cholesteryl Sulfate-Containing Composition As A Haemostatic” (DR. SUWELACK SKIN & HEALTH CARE AG, priority 2008, published 2012).

Key:
[1] = Solubility of cholesteryl sulfate salts; type: physicochemical
[2] = Stability of cholesteryl sulfate salts; type: physicochemical
[3] = test system: porcine whole blood; experiment: Sonoclot analysis (clotting time ACT and clot rate) in recalcified porcine whole blood; type: biochemical; settings: for ACT / clot rate: 360 μl porcine whole blood, recalcified with 20 μl 0.2 M calcium chloride, 1.1 mg carrier, SCS as 4% by wt vesicle solution
From the text: The haemostatic effect of cholesteryl sulfate as such was investigated using a Sonoclot®Coagulation & Platelet Function Analyzer by Scienco® Inc with regard to the clotting time (ACT) and clot rate. In this case, the ACT value indicates the time until the onset of the first thickening of the blood, which matches the time required by the system for generating a first blood clot. The clot rate indicates the speed with which the clot solidifies, and is there fore a measure for fibrin formation.
For the investigations presently illustrated, different quantities of cholesteryl sulfate in the form of its sodium salt was dissolved in methanol, and aliquots were transferred into the reaction vessels. By evaporating the methanol, the cholesteryl sulfate was precipitated as a layer on the bottom of the reaction vessel. Then 360 μl of porcine citrate blood were put into the reaction vessel, and 20 μl 0.2 M calcium chloride solution were subsequently added for recalcification. Both the time until coagulation (ACT) as well as the clot formation rate were measured with the Sonoclot Analyzer.
In order to show the enhanced effects in blood clotting of the combination of cholesteryl sulphate as a haemostatic agent and a haemostatic carrier material such as collagen the Sonoclot-Test has been carried out according to example 1.
The test condition and materials were in accordance with example 1.
As a carrier material freeze-dried, milled collagen from the company Dr. Suwelack Skin & Health Care AG (SHC) as well as collagen from bovine tendon from the company Sigma Aldrich have been examined in the Sonoclot-Analyzer and compared to cholesteryl sulphate as well as to a combination of the collagen and cholesteryl sulphate (SCS).
For the examination of the collagen carrier material 1.1 mg carrier material were transferred into the reaction vessels containing 360 μl porcine whole blood. 12.5 μl isosmotic saline solution (NaCl) were subsequently admixed and 20 μl 0.2 M calcium chloride solution were subsequently added for recalcification. Both the time until coagulation (ACT) as well as the clot formation rate were measured with the Sonoclot Analyzer. High clot rate indicates fast fibrin formation and thus fast clot formation.
For the examination of the collagen carrier material in combination with cholesteryl sulphate instead of isosmotic saline solution 12.5 μl of a cholesteryl sulphate vesicle solution containing 4% by wt cholesteryl sulphate is admixed with the carrier material.
For the examination of the cholesteryl sulphate a 4% by wt vesicle solution alone was tested accordingly.
The vesicle solution was prepared as described in example 2, Nr. 2 a).

With CC(C)CCC[C@@H](C)[C@H]1CC[C@H]2[C@@H]3CC=C4C[C@@H](OS(=O)(=O)[O-])CC[C@]4(C)[C@H]3CC[C@]12C.[K+] [potassium cholesteryl sulfate] the “solubility compared with sodium cholesteryl sulfate” value ([1]; e.g. in methanol) was “less soluble”, the water-solubility [1] was “only small water-solubility” and the “stability compared with sodium cholesteryl sulfate” value [2] was “greater stability”.
For CC(C)CCC[C@@H](C)[C@H]1CC[C@H]2[C@@H]3CC=C4C[C@@H](OS(=O)(=O)[O-])CC[C@]4(C)[C@H]3CC[C@]12C.[Na+] [12.5 μl SCS, sodium cholesteryl sulfate], the water-solubility [1] was “only small water-solubility”, the ACT ([3]; Experiment 1) was 90 s and the clot rate ([3]; Experiment 1) was 17. For the same molecule, the ACT ([3]; Experiment 2) was 81 s, the clot rate ([3]; Experiment 2) was 29 and the effect on coagulation ([3]; non-activated system, no pre-incubation) was “coagulation-promoting effect”.
